The source of these data is article PMC9440176, “Novel benzylidene benzofuranone analogues as potential anticancer agents: design, synthesis and in vitro evaluation based on CDK2 inhibition assays” (3 Biotech, 2022).

Each structure is given as a SMILES string.

This test concerns HCT-116 cells. Description: Apoptosis detection by propidium iodide / Annexin V-FITC. The format is cell-based, Human. More on the design: FACS analysis of apoptosis detection, Viable cells / FACS analysis of apoptosis detection, Early apoptotic / FACS analysis of apoptosis detection, Late apoptotic / FACS analysis of apoptosis detection, Necrotic: unit not given here. As for the experimental part: The day before induction of apoptosis, 1 × 10^6cells per well were plated on a 6-well plate using respective media with 10% FBS and 1% PenStrep, incubated overnight at 37 °C at 5% CO2.The media was replaced with test solutions of different concentrations in the media containing 10% FBS. The treated cells were incubated for 24 h at normal culture conditions. The cells were further harvested and the well contents were completely transferred into the sterile FACS tubes. The cell contents were centrifuged at 2000 rpm for 5 min and the supernatant was discarded. After centrifugation, the cells were washed twice with cold PBS and then resuspended in 1 ml of binding buffer at a concentration of 1× 10^6 cells/ml. […] of the cell suspension (5× 10^5 cells) were then transferred into a fresh FACS tube (Vermes et al. [1995]). Further, cells were gently mixed with […] of propidium iodide and […] of Annexin V before being incubated for 20 minutes at room temperature in the dark. The cells were immediately analyzed by flow cytometer within a duration of an hour.

Regarding `COc1ccc(/C=C2\Oc3c(c(OC)cc(OC)c3C3=CCN(C(C)C)CC3)C2=O)cc1OC` [NISOA4], under “12.5 µM”, the “FACS analysis of apoptosis detection, Early apoptotic” value stood at 6.36; the “FACS analysis of apoptosis detection, Late apoptotic” value was found to be 28.95; the “FACS analysis of apoptosis detection, Necrotic” value amounted to 9.61; the “FACS analysis of apoptosis detection, Viable cells” value came to 55.08. Under “25 µM”, the “FACS analysis of apoptosis detection, Early apoptotic” value amounted to 0.17; the “FACS analysis of apoptosis detection, Late apoptotic” value is on record as 52.11; the “FACS analysis of apoptosis detection, Necrotic” value is 24.06; the “FACS analysis of apoptosis detection, Viable cells” value was 23.66.
